{"source": "patent US8293682B2", "about": "“Growth regulators for gramineous weeds” (Rikengreen Co., Ltd., priority 2008, dated 2012)", "key": {"[1]": {"tested_on": "annual bluegrass (Poa annua L.)", "assay": "Test Example 3: number of emerged ears and leaves, poly-cup, two applications", "type": "in vivo", "conditions": "2nd application after 29 days", "procedure": "At the initial stage of the ear emergence of annual bluegrass (Poa annua L.) grown in a poly-cup of 11 cm×11 cm, benzyladenine (Beanine for painting; made by Rikengreen; containing 1% benzyladenine) and ethephon (Ethrel 10 soluble concentrate; Nissan Chemical Industries; containing 10% ethephon) were diluted in a predetermined amount of water, and a spreader (Riken Sprayzer (registered trade mark); made by Rikengreen) was added so as to be 1/1,000-fold concentration; the respectively diluted solutions were applied by atomization at a dose as indicated in Table (scattered solution: 200 mL/m^2), and after a lapse of 29 days, the 2nd application was carried out. Then, the number of emerged ears of annual bluegrass (Poa annua L.) in the cup was counted. Further, the number of leaves [Leaf] of annual bluegrass (Poa annua L.) was counted within the area of 6 cm×6 cm in the cup. The test was carried out serially. […] Dose means the amount at a single application."}, "[2]": {"tested_on": "annual bluegrass (Poa annua L.)", "assay": "Test Example 4: field test in bent green turf, emerged ear number", "type": "in vivo", "conditions": "applied Day 0 and after 30 days", "procedure": "In a bent green turf where annual bluegrasses (Poa annua L.) were grown, a test zone of 1 m×1 m was provided. Benzyladenine (Beanine for painting; made by Rikengreen; containing 1% benzyladenine) and ethephon (Ethrel 10 soluble concentrate; Nissan Chemical Industries; containing 10% ethephon) were diluted in a predetermined amount of water, and a spreader (Riken Sprayzer (registered trade mark); made by Rikengreen) was added so as to be 1/1,000-fold concentration. The respectively diluted solutions were applied to each test zone at the first application (Day 0) at a dose as indicated in Table, and after a lapse of 30 days the second application was carried out. The amount of solution scattered was 100 mL/m^2 both in the first and second applications. The number of ear emergence of annual bluegrass (Poa annua L.) within the area of 10×10 cm was counted at regular intervals at 3 spots per zone. […] Dose means the amount at a single application."}, "[3]": {"tested_on": "annual bluegrass (Poa annua L.)", "assay": "Test Example 1: number of ear emergence, poly-cup, single or mixed application", "type": "in vivo", "procedure": "At the initial stage of the ear emergence of annual bluegrass (Poa annua L.) grown in a poly-cup of 11 cm×11 cm, benzyladenine (Beanine for painting; made by Rikengreen; containing 1% benzyladenine) and ethephon (Ethrel 10 soluble concentrate; Nissan Chemical Industries; containing 10% ethephon) respectively as a single active ingredient or a mixture of them were diluted in a predetermined amount of water and applied by atomization so as to be a dose as indicated in Table. The application was carried out using 100 mL/m^2 of the solution to which a spreader (Riken Sprayzer (registered trade mark); made by Rikengreen) was added so as to be 1/1,000 fold. Inspection was made on Days 21, 32 and 45 after treatment with the agents to count the number of ear emergence in the cup. After completion of each inspection, clipping was performed."}, "lawn grasses": {"tested_on": "lawn grasses", "conditions": "Non-patent document 2; cited from earlier work"}, "[4]": {"tested_on": "annual bluegrass (Poa annua L.)", "assay": "Test Example 2: count of ear emergence, poly-cup, applications at intervals / alternate application", "type": "in vivo", "conditions": "Ethephon 40 mg a.i./m^2 applied Day 10", "procedure": "At the initial stage of the ear emergence of annual bluegrass (Poa annua L.) grown in a poly-cup of 11 cm×11 cm, benzyladenine (Beanine for painting; made by Rikengreen; containing 1% benzyladenine) and/or ethephon (Ethrel 10 soluble concentrate; Nissan Chemical Industries; containing 10% ethephon) were diluted in a predetermined amount of water, and a spreader (Riken Sprayzer (registered trade mark); made by Rikengreen) was added so as to be 1/1,000-fold concentration; the respectively diluted solutions were applied by atomization at a dose and intervals as indicated in Table (scattered solution: 200 mL/m^2), and the number of emerged ears of annual bluegrass (Poa annua L.) in the cup was counted through time. The test was carried out serially. […] The symbol “●” in Table indicates the treatment with benzyladenine, “◯” the treatment with ethephon, and “−” untreated. Dose means the amount at a single application."}, "[5]": {"conditions": "Day 46, Benzyladenine + Ethephon 0 + 20 mg a.i./m^2"}, "[6]": {"conditions": "Day 46, Benzyladenine + Ethephon 0 + 40 mg a.i./m^2"}, "[7]": {"conditions": "Day 46, Benzyladenine + Ethephon 0 + 80 mg a.i./m^2"}}}
{"smiles": "O=P(O)(O)CCCl", "note": "[Ethephon, 2-chloroethylphosphonic acid]", "values": [{"measurement": "Ear (number of emerged ears in the cup)", "setting": "[1]; Day 23, Benzyladenine + Ethephon 0 + 20 mg a.i./m^2", "result": 30}, {"measurement": "Ear (number of emerged ears in the cup)", "setting": "[1]; Day 23, Benzyladenine + Ethephon 0 + 40 mg a.i./m^2", "result": 23}, {"measurement": "Ear (number of emerged ears in the cup)", "setting": "[1]; Day 23, Benzyladenine + Ethephon 0 + 80 mg a.i./m^2", "result": 13}, {"measurement": "Ear (number of emerged ears in the cup)", "setting": "[1]; [5]", "result": 34}, {"measurement": "[Leaf] (number of leaves within 6 cm×6 cm)", "setting": "[1]; [5]", "result": "[90]"}, {"measurement": "Ear (number of emerged ears in the cup)", "setting": "[1]; [6]", "result": 27}, {"measurement": "[Leaf] (number of leaves within 6 cm×6 cm)", "setting": "[1]; [6]", "result": "[88]"}, {"measurement": "Ear (number of emerged ears in the cup)", "setting": "[1]; [7]", "result": 29}, {"measurement": "[Leaf] (number of leaves within 6 cm×6 cm)", "setting": "[1]; [7]", "result": "[79]"}, {"measurement": "Ear (number of emerged ears in the cup)", "setting": "[1]; Day 53, Benzyladenine + Ethephon 0 + 20 mg a.i./m^2", "result": 34}, {"measurement": "Ear (number of emerged ears in the cup)", "setting": "[1]; Day 53, Benzyladenine + Ethephon 0 + 40 mg a.i./m^2", "result": 30}, {"measurement": "Ear (number of emerged ears in the cup)", "setting": "[1]; Day 53, Benzyladenine + Ethephon 0 + 80 mg a.i./m^2", "result": 41}, {"measurement": "Ear (mean emerged ear number within 10×10 cm)", "setting": "[2]; Day 22, Ethephon 80, Benzyladenine 0 mg a.i./m^2", "result": 53.7}, {"measurement": "Ear (mean emerged ear number within 10×10 cm)", "setting": "[2]; Day 22, Ethephon 160, Benzyladenine 0 mg a.i./m^2", "result": 25.0}, {"measurement": "Ear (mean emerged ear number within 10×10 cm)", "setting": "[2]; Day 41, Ethephon 80, Benzyladenine 0 mg a.i./m^2", "result": 57.3}, {"measurement": "Ear (mean emerged ear number within 10×10 cm)", "setting": "[2]; Day 41, Ethephon 160, Benzyladenine 0 mg a.i./m^2", "result": 24.3}, {"measurement": "Ear (mean emerged ear number within 10×10 cm)", "setting": "[2]; Day 61, Ethephon 80, Benzyladenine 0 mg a.i./m^2", "result": 68.7}, {"measurement": "Ear (mean emerged ear number within 10×10 cm)", "setting": "[2]; Day 61, Ethephon 160, Benzyladenine 0 mg a.i./m^2", "result": 59.0}, {"measurement": "number of ear emergence in the cup", "setting": "[3]; 21 Days after Application, Benzyladenine 0, Ethephon 40 mg a.i./m^2", "result": 43}, {"measurement": "number of ear emergence in the cup", "setting": "[3]; 21 Days after Application, Benzyladenine 0, Ethephon 80 mg a.i./m^2", "result": 47}, {"measurement": "number of ear emergence in the cup", "setting": "[3]; 21 Days after Application, Benzyladenine 0, Ethephon 160 mg a.i./m^2", "result": 28}, {"measurement": "number of ear emergence in the cup", "setting": "[3]; 21 Days after Application, Benzyladenine 0, Ethephon 240 mg a.i./m^2", "result": 29}, {"measurement": "number of ear emergence in the cup", "setting": "[3]; 21 Days after Application, Benzyladenine 0, Ethephon 320 mg a.i./m^2", "result": 19}, {"measurement": "number of ear emergence in the cup", "setting": "[3]; 32 Days after Application, Benzyladenine 0, Ethephon 40 mg a.i./m^2", "result": 38}, {"measurement": "number of ear emergence in the cup", "setting": "[3]; 32 Days after Application, Benzyladenine 0, Ethephon 80 mg a.i./m^2", "result": 41}, {"measurement": "number of ear emergence in the cup", "setting": "[3]; 32 Days after Application, Benzyladenine 0, Ethephon 160 mg a.i./m^2", "result": 32}, {"measurement": "number of ear emergence in the cup", "setting": "[3]; 32 Days after Application, Benzyladenine 0, Ethephon 240 mg a.i./m^2", "result": 19}, {"measurement": "number of ear emergence in the cup", "setting": "[3]; 32 Days after Application, Benzyladenine 0, Ethephon 320 mg a.i./m^2", "result": 15}, {"measurement": "number of ear emergence in the cup", "setting": "[3]; 45 Days after Application, Benzyladenine 0, Ethephon 40 mg a.i./m^2", "result": 54}, {"measurement": "number of ear emergence in the cup", "setting": "[3]; 45 Days after Application, Benzyladenine 0, Ethephon 80 mg a.i./m^2", "result": 51}, {"measurement": "number of ear emergence in the cup", "setting": "[3]; 45 Days after Application, Benzyladenine 0, Ethephon 160 mg a.i./m^2", "result": 38}, {"measurement": "number of ear emergence in the cup", "setting": "[3]; 45 Days after Application, Benzyladenine 0, Ethephon 240 mg a.i./m^2", "result": 39}, {"measurement": "number of ear emergence in the cup", "setting": "[3]; 45 Days after Application, Benzyladenine 0, Ethephon 320 mg a.i./m^2", "result": 36}, {"measurement": "extension of stolon and weight in lawn grasses", "setting": "lawn grasses", "result": "promotes the extension of stolon and increase of the weight in lawn grasses"}, {"measurement": "Count of ear emergence", "setting": "[4]; Day 25", "result": 35}, {"measurement": "Count of ear emergence", "setting": "[4]; Day 33", "result": 27}]}
